The test system of the assay is Anopheles gambiae. As to the kind of experiment: Attraction tests in outdoor screenhouses: mosquitoes caught in MM-X or BG Sentinel traps baited with plant-based volatile organic compounds. Type of assay: in vivo. Conditions: single compounds suspended in mineral oil; 300-400 released. Here is the method: Attraction tests were conducted in two sizes of outdoor screenhouses (˜5.5×7 m and 11×7 m, each>3 m high) at the Mbita research station (Odhiambo Campus, Kenya) of the International Centre of Insect Physiology & Ecology (ICIPE). The screenhouses provided a semi-natural physical environment that allowed experimental control over mosquito sample size and recovery of marked and/or released mosquitoes. It was noted that fluctuations of weather conditions would cause variations in flight behavior from night to night, affecting attraction to volatile organic compounds. The walls and ceiling were lined with netting to reduce interference from ants and spiders and to prevent mosquitoes from aggregating in the vaulted ceiling. The floor was a bed of sand, dampened daily. On the floor at each corner of the screenhouse, dampened pots served as resting harborages, which the mosquitoes typically entered at dawn. When local potted plants were included in the environment, they were spaced throughout the floor.
Tested mosquitoes were the Mbita strain of Anopheles gambiae, colonized locally about 14 years ago, but with infusions of field material in some subsequent years, to maintain genetic diversity. Adults emerging each night from daily collections of pupae were fed water only and were tested in the screenhouses the following night. At this age, both sexes still have adequate deposits of somatic energy from larval feeding but will die during the following 1.5 days without nutrients. Before sunset, the volatile organic compounds baits were installed in mosquito traps, their fans were turned on, and the mosquitoes were released from a small cage prepared for that purpose.
Attraction was measured as the number of mosquitoes caught in MM-X or BG Sentinel traps baited with plant-based volatile organic compounds. The volatile organic compounds were prepared as individual compounds suspended in mineral oil, which controlled release rate according to dosage (concentration) while also retarding release rate of all compounds. Each compound was released separately from other compounds when more than one was released simultaneously. The oil-volatile organic compound suspensions were applied to two different types of release substrates: long nylon fabric strips in the exhaust tube of the trap, and short cotton wicks suspended in a wire basket beneath the exhaust tube. […] As an example of the tested volatile organic compounds, the release profiles of hexanol and phenylacetaldehyde (suspended in hexane or mineral oil, applied to nylon sock or cotton wick) as measured in a MM-X trap is shown in FIGS. 19a and 19b, respectively. The release profiles of hexanol, linalool oxide, ocimene, pinene, and 6-methyl-5-hepten-2-one are similar to phenylacetaldehyde.
The layout of traps was designed to maximize discrimination among traps releasing different plant-based volatile organic compounds or releasing none (the blank control). The small screenhouses contained 2 traps, positioned diagonally. The large screenhouses contained 4 traps. In both sizes, the traps were near the corners, but not so close to the netting walls as to interfere with mosquito flight around the traps or the free flow of the odor plume from the traps. For replicates of each test, the positions of the traps were rotated, to minimize positional bias for one of these variables: a particular compound, particular dose of a compound, or particular combination of several compounds or their proportions. In early tests, a blank trap was always included. But after establishing that a blank trap never caught more than 10 mosquitoes, out of 300-400 released, blank traps were usually replaced by one with a bait using volatile organic compounds. The number trapped out of the total number released, expressed as a percentage, was seldom calculated, because of the large and variable numbers of mosquitoes unaccounted for by trap and aspirator recapture. […]

Turning to `C=CC(C)=CCC=C(C)C` [ocimene], the “attraction score (number of mosquitoes caught in baited trap), in words” value (“attraction score” below) is listed as “in higher dosages (and therefore higher release rates) gave higher attraction scores”.

`CCCCCCO` [Hexanol, hexanol]: the “attraction score” value is given as “good scores even at low dosages, with little or no improvement at higher doses”.

On to `O=CCc1ccccc1` [phenylacetaldehyde], for which the “attraction score” value is reported as “weak or mediocre”.

In the case of `CCOC(=O)Cc1ccccc1` [ethylphenylacetate], the “attraction score” value is reported as “in higher dosages (and therefore higher release rates) gave higher attraction scores”.

As for `C=CC(C)(O)CCC=C(C)C` (stereo not drawn) [linalool], the “attraction score” value was “in higher dosages (and therefore higher release rates) gave higher attraction scores”.

Consider caryophyllene, for which the “attraction score” value was “in higher dosages (and therefore higher release rates) gave higher attraction scores”.

For the origin of these results see US20160007585A1, “INSECT CONTROL DEVICE” (Clarke Mosquito Control Products, Inc., priority 2014, published 2016).
